Source: US9228015B2, “Nogo receptor antagonists and methods of increasing neurite outgrowth” (Biogen Idec MA Inc., priority 2006, dated 2016)

B1: sNogoR344: soluble Nogo receptor-1 polypeptide, residues 26-344 of SEQ ID NOs: 6 and 8 or 27-344 of SEQ ID NO: 8 (protein, listed as Homo sapiens)
chain: PCPGACVCYNEPKVTTSCPQQGLQAVPVGIPAASQRIFLHGNRISHVPAASFRACRNLTILWLHSNVLARIDAAAFTGLALLEQLDLSDNAQLRSVDPATFHGLGRLHTLHLDRCGLQELGPGLFRGLAALQYLYLQDNALQALPDDTFRDLGNLTHLFLHGNRISSVPERAFRGLHSLDRLLLHQNRVAHVHPHAFRDLGRLMTLYLFANNLSALPTEALAPLRALQYLRLNDNPWVCDCRARPLWAWLQKFRGSSSEVPCSLPQRLAGRDLKRLAANDLQGCAVATGPYHPIWTGRATDEEPLGLPKCCQPDAADKA

What was measured:
7E11 [1] = assay: Epitope mapping: 7E11 binding to protease digest peptides of NgR1; parameters: species or system murine; conditions: trypsin or Asp-N digest, MS analysis
Excerpt: The 7E11 binding site was further analyzed by testing tryptic peptide digests of sNgR310. […] 7E11 bound only a single tryptic digest peptide, providing additional evidence that 7E11 binds to a single epitope on NgR1. Subsequent mass spectroscopy (MS) and sequence analyses identified the bound peptide to be […] (SEQ ID NO: 26).
The […] peptide (SEQ ID NO: 1) was subjected to further mapping analysis. The peptide was digested with trypsin, which yielded two major fragments, […] (SEQ ID NO: 27) and VVDPTT (SEQ ID NO: 28), and the ability of 7E11 to bind them was tested. […] Within this peptide fraction, detailed MS analysis identified several scrambled peptides that also bound 7E11, including peptides with deamination at Asn115 and Gln117, addition of Alanine at 112 or 113, or addition of Serine at 114 (Table 3).
The […] (SEQ ID NO:1) peptide was also digested with the endoprotease Asp-N and 7E11 binding was tested. Endoprotease Asp-N cleaved the peptide into 3 peptide fragments, L, DLS and […] (SEQ ID NO: 36). Of these products, 7E11 bound the […] (SEQ ID NO:36) peptide. Taken together, the trypsin and Asp-N cleavage data further localize the 7E11 binding epitope to the sequence shared between them, DNAQLR (SEQ ID NO: 37).

7E11 [2] = assay: 7E11 binding to immobilized point-mutant peptides (MaxiSorp plate, serial dilutions of 7E11); parameters: species or system murine; conditions: 7E11 binding to immobilized peptide
Excerpt: To verify these contact points, several peptides containing point mutations within the […] sequence (SEQ ID NO: 27) were generated and tested for 7E11 binding. The peptides were immobilized on a MaxiSorp™ plate (Nunc™) and serial dilutions of 7E11 were applied. […] The most significant change in EC50 was observed when Arg 119 was mutated to Alanine.

[3] = test system: NogoA, NogoB, NogoC, MAG and OM-gp binding to Nogo receptor-1; assay: Soluble Nogo receptors block ligand binding to Nogo receptor-1

Molecule | peptide bound by 7E11 (7E11 [1]) | increase of EC50 relative to the original peptide (7E11 [2]) [fold] | also measured
AAAFTGLTLLEQLDLSDNAQLR (Rattus) [tryptic digest peptide of sNgR310] | bound |  | 
DNAQLRVVDPTT (sequence also found in Rattus; listed as Homo Sapiens) | bound |  | 
LDLSDNAALRVVDPTT [Q117A] |  | 30 | 
LDLSDNAQLHVVDPTT [R119H] |  | 25 | 
LDLSDNAQLR (sequence also found in Rattus; listed as Homo Sapiens) | bound |  | 
B1 |  |  | block of binding of NogoA, NogoB, NogoC, MAG and OM-gp to Nogo receptor-1 [3]: block
